From ChEMBL document CHEMBL1201862, “PubChem BioAssay data set” (2004)
Activity calls are given as the source filed them.

Key:
[1] = cytotoxicity in BJeH fibroblasts, dose response, counter-screen for Ras selective lethality project, BJeH cells, dry powder (AID 493054); type: functional, cell-based
[2] = cytotoxicity in BJeHLT fibroblasts, dose response, counter-screen for Ras selective lethality project, BJeHLT cells, dry powder (AID 493052); type: functional, cell-based; settings: Homo sapiens
[3] = target: T1, Short transient receptor potential channel 4 (Mus musculus, UniProt Q9QUQ5); assay: TRPC4 positive allosteric modulators, dose response, cell-based, HEK293 TRPC4/mu-opioid, Fluo-4 calcium, EC20 DAMGO (AID 434941); type: functional
T1 sequence (Q9QUQ5 whole entry): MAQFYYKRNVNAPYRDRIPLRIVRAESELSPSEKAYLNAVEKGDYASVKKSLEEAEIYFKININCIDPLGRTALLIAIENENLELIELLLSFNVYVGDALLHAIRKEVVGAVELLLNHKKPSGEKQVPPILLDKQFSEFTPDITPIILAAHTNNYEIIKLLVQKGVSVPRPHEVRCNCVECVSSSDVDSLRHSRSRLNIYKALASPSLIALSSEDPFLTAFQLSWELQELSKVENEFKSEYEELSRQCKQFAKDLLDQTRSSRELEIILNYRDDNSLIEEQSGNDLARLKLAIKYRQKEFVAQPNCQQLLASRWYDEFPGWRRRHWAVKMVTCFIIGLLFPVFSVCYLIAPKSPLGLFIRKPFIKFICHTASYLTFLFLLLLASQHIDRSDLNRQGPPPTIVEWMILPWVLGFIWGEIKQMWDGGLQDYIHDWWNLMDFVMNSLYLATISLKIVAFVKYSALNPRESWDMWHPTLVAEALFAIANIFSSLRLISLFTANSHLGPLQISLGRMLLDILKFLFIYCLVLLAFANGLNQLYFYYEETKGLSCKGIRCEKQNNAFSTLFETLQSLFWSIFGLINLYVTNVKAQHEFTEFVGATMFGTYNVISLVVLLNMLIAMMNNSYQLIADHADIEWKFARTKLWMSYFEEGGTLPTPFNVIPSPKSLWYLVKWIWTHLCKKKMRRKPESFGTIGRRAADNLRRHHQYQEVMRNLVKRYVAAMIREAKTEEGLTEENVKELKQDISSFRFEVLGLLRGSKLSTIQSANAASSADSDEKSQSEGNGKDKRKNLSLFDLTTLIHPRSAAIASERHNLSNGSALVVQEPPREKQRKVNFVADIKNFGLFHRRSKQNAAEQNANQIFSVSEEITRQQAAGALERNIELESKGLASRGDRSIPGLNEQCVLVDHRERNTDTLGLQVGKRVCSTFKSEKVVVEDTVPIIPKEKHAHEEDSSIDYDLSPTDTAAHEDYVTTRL

[4] = target: G2/mitotic-specific cyclin-B1 (Homo sapiens, UniProt P14635); assay: G2/M cell cycle arrest in HeLa, late-stage follow-up, mechanism study for Wee1 degradation inhibitor project, FACS, panel member Cyclin B Degradation (AID 2088)
Wee1-like protein kinase = Wee1-like protein kinase (Homo sapiens, UniProt P30291); assay: G2/M cell cycle arrest in HeLa, late-stage follow-up, mechanism study for Wee1 degradation inhibitor project, FACS, panel member Wee1 Degradation (AID 2088)
Chain of Wee1-like protein kinase (P30291 whole entry): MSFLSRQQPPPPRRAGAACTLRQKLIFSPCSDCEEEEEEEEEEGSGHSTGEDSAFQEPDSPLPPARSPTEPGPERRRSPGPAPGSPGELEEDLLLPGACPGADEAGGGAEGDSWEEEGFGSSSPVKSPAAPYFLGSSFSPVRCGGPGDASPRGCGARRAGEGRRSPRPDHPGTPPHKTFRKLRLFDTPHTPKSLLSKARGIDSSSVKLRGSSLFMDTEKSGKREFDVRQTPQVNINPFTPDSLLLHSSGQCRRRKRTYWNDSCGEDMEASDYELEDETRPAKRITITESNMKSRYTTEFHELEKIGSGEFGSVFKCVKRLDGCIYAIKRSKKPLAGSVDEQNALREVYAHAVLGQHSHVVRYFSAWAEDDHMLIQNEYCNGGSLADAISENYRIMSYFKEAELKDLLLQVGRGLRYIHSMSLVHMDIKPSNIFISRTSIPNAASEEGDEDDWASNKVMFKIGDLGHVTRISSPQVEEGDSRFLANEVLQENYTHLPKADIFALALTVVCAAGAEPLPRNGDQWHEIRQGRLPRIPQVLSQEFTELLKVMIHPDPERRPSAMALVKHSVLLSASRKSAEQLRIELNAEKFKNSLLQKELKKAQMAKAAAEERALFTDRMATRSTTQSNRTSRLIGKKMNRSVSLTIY

[5] = MC4R antagonists, dose response, counter-screen for LGR2 antagonist project, cell-based, plate reader, cherry pick (AID 743444); type: functional;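 note: transfected HEK 293 cells stimulated with alpha-MSH peptide; potency of inhibitors of the alpha-MSH evoked signal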
[6] = LGR2 antagonists, dose response, cell-based, HEK293, CRE-luciferase reporter, cherry pick, set 2 (AID 743343); type: functional;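 note: transfected cells were stimulated with diluted bursicon conditioned medium after compound addition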
[7] = target: Acyl-homoserine lactone acylase PvdQ (Pseudomonas aeruginosa (strain LESB58), UniProt Q9I194); assay: P. aeruginosa PvdQ acylase inhibitors, dose response, biochemical, fluorescence, plate reader and imaging, cherry-picks (AID 493231)
[8] = A549 cell cytotoxicity, dose response, cytotoxicity control, plate reader, cherry-pick, antagonist series (AID 743412); type: functional, cell-based
[9] = HEK293 cell cytotoxicity, dose response, cytotoxicity control, plate reader, cherry-picked samples (AID 743446); type: functional, cell-based
[10] = HepG2 cell cytotoxicity, dose response, cytotoxicity control, plate reader, cherry-pick, antagonist series (AID 743416); type: functional, cell-based
[11] = target: T2, Voltage-gated N-type calcium channel alpha-1B subunit/Amyloid beta A4 precursor protein-binding family A member 1 (Homo sapiens, UniProt Q00975+Q02410); assay: disruptors of Mint-PDZ/N-type channel peptide interaction – biochemical, HTRF, set 2, SAR follow-up (AID 434980); type: functional
T2 sequence (Q00975 whole entry): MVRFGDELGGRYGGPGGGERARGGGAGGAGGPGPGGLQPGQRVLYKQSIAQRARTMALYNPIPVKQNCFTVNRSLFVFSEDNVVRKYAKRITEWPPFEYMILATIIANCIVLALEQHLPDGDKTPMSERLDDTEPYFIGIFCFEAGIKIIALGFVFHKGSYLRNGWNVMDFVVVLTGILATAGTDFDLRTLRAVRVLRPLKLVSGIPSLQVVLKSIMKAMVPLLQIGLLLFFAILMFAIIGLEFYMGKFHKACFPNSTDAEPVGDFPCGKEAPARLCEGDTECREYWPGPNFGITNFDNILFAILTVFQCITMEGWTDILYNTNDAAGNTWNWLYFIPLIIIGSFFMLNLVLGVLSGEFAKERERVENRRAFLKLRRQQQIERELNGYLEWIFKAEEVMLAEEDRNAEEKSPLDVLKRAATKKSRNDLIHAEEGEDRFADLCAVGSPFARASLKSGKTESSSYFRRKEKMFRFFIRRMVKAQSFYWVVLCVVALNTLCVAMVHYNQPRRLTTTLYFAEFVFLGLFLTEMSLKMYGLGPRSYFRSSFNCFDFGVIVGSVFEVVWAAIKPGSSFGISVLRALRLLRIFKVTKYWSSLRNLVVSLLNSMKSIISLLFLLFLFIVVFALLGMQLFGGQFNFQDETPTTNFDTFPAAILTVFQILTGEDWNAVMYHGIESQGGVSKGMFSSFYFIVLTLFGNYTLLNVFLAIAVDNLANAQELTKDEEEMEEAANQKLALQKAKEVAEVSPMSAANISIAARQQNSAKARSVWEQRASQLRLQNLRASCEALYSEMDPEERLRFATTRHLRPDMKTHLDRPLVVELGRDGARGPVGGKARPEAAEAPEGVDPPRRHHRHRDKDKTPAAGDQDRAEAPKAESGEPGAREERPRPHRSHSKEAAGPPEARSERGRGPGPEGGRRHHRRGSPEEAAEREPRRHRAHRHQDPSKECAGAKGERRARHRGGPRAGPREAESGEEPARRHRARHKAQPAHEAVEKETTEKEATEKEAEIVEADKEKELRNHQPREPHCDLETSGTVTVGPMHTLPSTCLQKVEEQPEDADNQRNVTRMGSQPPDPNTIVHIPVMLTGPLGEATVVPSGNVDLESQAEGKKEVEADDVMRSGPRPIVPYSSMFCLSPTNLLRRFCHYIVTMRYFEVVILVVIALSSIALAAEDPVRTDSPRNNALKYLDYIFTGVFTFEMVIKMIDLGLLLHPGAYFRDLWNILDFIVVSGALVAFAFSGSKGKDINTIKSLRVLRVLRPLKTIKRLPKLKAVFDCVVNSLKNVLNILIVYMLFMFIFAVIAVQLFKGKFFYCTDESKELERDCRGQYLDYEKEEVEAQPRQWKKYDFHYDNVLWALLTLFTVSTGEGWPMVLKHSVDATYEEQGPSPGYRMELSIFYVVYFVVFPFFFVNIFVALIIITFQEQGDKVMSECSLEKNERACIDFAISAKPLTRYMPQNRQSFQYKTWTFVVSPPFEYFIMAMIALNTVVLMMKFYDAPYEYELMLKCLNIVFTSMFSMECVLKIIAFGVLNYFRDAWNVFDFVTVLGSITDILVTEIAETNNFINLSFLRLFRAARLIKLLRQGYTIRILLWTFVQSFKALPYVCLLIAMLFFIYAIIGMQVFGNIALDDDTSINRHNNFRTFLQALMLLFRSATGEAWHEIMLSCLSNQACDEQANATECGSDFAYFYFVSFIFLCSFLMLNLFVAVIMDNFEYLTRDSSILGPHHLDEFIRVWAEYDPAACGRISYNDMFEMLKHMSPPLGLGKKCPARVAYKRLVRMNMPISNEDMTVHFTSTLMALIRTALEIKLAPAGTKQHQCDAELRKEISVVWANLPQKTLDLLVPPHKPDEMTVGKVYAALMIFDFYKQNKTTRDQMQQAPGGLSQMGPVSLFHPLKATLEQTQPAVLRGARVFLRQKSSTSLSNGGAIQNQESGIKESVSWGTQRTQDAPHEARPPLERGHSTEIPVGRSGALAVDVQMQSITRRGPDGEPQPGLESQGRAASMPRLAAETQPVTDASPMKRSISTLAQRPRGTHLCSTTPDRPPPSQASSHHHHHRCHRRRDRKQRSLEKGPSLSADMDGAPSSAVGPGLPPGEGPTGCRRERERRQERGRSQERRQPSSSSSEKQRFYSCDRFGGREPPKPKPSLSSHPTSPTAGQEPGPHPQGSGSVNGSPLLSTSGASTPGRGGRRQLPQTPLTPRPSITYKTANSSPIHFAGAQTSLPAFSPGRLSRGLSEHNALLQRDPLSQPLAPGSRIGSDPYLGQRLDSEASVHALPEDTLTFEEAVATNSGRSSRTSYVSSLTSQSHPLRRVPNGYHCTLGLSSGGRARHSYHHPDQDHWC
T2 sequence (Q02410 whole entry): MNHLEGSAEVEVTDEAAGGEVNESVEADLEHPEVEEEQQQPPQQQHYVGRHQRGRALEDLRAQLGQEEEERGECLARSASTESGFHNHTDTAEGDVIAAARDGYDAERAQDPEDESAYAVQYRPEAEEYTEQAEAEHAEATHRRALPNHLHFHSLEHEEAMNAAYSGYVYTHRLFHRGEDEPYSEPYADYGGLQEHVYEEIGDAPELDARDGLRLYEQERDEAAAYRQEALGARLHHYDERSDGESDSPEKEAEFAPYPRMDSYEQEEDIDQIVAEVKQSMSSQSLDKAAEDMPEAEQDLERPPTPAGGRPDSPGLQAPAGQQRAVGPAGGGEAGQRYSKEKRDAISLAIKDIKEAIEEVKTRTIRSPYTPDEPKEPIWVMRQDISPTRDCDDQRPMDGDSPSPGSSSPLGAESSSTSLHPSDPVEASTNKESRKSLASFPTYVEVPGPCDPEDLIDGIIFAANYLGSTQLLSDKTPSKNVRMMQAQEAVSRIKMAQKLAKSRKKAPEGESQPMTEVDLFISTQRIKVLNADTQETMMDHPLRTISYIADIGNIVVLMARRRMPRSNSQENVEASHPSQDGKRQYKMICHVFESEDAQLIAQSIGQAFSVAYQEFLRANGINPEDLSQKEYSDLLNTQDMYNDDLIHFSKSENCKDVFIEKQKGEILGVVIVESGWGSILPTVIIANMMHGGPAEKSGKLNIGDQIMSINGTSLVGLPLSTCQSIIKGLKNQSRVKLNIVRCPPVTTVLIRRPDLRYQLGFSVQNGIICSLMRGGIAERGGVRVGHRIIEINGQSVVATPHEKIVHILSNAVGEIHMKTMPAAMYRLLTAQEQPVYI

[12] = target: T2, Voltage-gated N-type calcium channel alpha-1B subunit/Amyloid beta A4 precursor protein-binding family A member 1; assay: disruptors of Mint-PDZ/N-type channel peptide interaction – biochemical, HTRF, SAR follow-up (AID 2489); type: functional
[13] = target: Scavenger receptor class B member 1 (Mus musculus, UniProt Q61009); assay: inhibitors of SR-BI mediated HDL lipid uptake, dose response, ldlA[mSR-BI] cells, fluorescence, cherry pick (AID 493194); type: functional, cell-based;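 note: cellular uptake of fluorescent DiI-labeled HDL measured as cell fluorescence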
Chain of Scavenger receptor class B member 1 (Q61009 whole entry): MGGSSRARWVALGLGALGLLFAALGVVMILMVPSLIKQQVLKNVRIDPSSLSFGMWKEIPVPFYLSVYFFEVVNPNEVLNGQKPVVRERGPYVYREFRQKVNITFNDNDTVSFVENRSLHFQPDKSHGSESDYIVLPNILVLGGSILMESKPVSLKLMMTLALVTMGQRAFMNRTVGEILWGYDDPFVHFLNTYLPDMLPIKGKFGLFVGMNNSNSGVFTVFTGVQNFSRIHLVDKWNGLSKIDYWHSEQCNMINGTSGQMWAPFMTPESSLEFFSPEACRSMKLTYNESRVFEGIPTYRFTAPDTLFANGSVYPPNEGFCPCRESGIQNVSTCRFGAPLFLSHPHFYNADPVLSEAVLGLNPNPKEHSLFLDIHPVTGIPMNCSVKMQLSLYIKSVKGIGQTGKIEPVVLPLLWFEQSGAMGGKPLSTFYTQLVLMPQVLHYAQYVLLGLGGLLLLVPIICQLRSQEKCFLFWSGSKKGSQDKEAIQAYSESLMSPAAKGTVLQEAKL

[14] = target: Lysosomal acid glucosylceramidase (Homo sapiens, UniProt P04062); assay: Dose response cell-based high throughput screening assay to identify enhancers of beta-glucosidase activity. [Related pubchem assays: 784 ]; type: functional
[15] = target: Mitogen-activated protein kinase 10 (Homo sapiens, UniProt P53779); assay: Dose response biochemical screening assay for inhibitors of c-Jun N-Terminal Kinase 3 (JNK3). [Related pubchem assays: 746 ]
Chain of Mitogen-activated protein kinase 10 (P53779 whole entry): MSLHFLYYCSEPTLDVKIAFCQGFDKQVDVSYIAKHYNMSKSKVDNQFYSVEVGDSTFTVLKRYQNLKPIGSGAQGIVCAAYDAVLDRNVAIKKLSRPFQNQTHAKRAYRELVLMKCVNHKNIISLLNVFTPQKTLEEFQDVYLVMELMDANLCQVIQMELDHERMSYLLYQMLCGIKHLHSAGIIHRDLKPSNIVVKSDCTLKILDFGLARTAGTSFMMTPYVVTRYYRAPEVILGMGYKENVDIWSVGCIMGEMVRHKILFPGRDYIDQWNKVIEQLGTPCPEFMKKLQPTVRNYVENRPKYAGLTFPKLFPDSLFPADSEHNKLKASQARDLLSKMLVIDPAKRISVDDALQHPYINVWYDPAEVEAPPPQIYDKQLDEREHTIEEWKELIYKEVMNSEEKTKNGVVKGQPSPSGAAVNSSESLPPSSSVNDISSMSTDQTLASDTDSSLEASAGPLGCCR

[16] = polyadenylation inhibitors in yeast reporter, dose response, luminescence, S. cerevisiae SKY197-pL101 (AID 2525); type: functional, cell-based

COc1ccc(N(C(=O)[C@@H](C)Cl)C(C(=O)NCCc2ccccc2)c2cccs2)cc1Cl (some centres not stated)
AC50 [1]: > 454 µM (inactive)
AC50 [2]: > 454 µM (inactive)

Cc1cc(OCC(=O)NC2CCCCC2)ccc1Cl
EC50 [3]: 1.88 µM (active)

CCc1ccc(NC(=O)CCCOc2cc(=O)n(C)c3ccccc23)cc1
EC50 [4]: > 49.7 µM (inactive)
EC50 (Wee1-like protein kinase): > 49.7 µM (inactive)

CCOc1ccc(-c2cn3ccccc3n2)cc1
AC50 [5]: 4.5 µM (active)
AC50 [6]: 5.05 µM (active)
AC50 [7]: 92.1 µM (active)
AC50 [8]: > 52 µM (inactive)
AC50 [9]: > 52 µM (inactive)
AC50 [10]: > 52 µM (inactive)

COc1cccc(CCNC(=O)c2cc(-c3ccco3)nc3ccccc23)c1
IC50 [11]: > 56.8 µM (inactive)
IC50 [12]: > 56.8 µM (inactive)

Cc1ccc2oc(-c3cccc(NC(=O)c4cc(-n5cnnc5)ccc4Cl)c3)nc2c1
AC50 [13]: 8.18 µM (active)

Cc1ccnc(Nc2nc(-c3c(C)nc4sccn34)cs2)c1
EC50 [14]: > 50 µM (not active)
IC50 [15]: > 93.1 µM (not active)

CCN1/C(=C/C=C/c2sc3ccccc3[n+]2CC)Sc2ccccc21 [ALAZANINE]
EC50 [16]: 243 µM (active)
